Source: the supplement of paper PMC12076712

Experiments:
Test in all cases: pIC50, kinobeads binding competition
UniProt P16234 = settings: cell material: Lysate mix
Outline: (§1)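 Nine compound concentrations were tested, starting at 30 μM in 1:4 steps on live Jurkat cells (60 min, 37 °C, then lysis) or in 1:5 steps on Jurkat lysate or a 1:1:1:1 HEK293/K-562/HepG2/placenta lysate mix (60 min, 4 °C). Kinobeads-bound proteins were digested and quantified with TMT10 LC-MS/MS. pIC50 values are from logistic dose-response fits in the R drc package of fold changes relative to vehicle, from biological duplicates.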

AKT2 = AKT2 (UniProt P31751)
Outline: as §1

UniProt Q99683 = biological target: T1, UniProt Q99683
T1 sequence (whole entry): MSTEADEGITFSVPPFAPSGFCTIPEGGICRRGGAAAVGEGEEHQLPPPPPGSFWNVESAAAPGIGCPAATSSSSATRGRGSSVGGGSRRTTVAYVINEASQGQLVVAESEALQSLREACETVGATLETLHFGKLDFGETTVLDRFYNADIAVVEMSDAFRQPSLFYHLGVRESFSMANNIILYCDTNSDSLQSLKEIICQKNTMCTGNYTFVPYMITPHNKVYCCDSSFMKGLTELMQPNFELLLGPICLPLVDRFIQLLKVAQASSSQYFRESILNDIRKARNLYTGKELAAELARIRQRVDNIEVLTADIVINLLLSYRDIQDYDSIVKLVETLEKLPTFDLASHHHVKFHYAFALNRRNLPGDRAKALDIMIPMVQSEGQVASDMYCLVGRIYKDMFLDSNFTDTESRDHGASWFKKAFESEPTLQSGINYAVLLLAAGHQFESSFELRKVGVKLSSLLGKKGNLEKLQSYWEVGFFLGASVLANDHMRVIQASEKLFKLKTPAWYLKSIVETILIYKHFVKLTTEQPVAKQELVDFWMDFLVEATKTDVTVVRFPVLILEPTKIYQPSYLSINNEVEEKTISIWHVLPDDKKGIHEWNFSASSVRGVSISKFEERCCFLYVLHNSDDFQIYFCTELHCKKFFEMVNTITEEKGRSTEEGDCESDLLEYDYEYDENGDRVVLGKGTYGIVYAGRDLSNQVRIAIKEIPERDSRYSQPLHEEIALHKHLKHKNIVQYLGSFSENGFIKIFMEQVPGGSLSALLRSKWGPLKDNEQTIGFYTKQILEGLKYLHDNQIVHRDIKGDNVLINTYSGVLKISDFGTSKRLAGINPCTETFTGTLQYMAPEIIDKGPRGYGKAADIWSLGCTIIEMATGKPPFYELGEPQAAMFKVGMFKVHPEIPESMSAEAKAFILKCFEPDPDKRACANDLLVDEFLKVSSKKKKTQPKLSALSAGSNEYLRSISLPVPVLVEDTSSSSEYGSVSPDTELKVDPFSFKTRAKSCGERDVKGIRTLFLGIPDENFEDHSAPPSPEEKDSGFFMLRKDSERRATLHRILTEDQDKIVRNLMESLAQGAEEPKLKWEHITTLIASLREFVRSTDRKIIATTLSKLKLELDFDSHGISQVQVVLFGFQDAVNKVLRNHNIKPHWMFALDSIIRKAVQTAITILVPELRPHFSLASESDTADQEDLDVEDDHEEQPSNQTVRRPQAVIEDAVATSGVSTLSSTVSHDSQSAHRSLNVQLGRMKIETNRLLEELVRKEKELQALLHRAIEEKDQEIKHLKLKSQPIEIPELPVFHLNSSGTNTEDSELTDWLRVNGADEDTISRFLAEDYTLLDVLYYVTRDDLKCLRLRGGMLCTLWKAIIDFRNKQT
Outline: as §1

CDK10 = CDK10 (UniProt Q15131)
Outline: as §1

UniProt Q9P289 = biological target: UniProt Q9P289
Outline: as §1

UniProt Q14164 = biological target: T2, UniProt Q14164
T2 sequence (whole entry): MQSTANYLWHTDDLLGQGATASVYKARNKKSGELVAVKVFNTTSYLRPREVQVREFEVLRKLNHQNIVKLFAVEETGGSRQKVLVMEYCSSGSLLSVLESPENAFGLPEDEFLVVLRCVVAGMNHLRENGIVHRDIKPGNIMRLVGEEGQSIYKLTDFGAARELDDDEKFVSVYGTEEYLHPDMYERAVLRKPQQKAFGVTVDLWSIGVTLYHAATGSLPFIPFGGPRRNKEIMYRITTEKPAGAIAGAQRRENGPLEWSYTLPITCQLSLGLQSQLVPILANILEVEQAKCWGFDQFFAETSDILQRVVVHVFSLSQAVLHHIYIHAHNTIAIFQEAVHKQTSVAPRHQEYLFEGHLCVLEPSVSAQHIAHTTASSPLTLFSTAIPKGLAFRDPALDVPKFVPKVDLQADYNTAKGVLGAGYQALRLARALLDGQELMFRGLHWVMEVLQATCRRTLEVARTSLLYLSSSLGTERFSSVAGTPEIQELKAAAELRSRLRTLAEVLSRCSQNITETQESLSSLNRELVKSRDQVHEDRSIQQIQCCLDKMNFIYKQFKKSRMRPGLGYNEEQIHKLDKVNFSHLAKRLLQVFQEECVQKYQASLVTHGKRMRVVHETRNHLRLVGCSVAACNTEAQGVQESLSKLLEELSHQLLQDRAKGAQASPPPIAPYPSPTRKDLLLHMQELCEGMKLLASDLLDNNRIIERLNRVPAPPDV
Outline: as §1

UniProt Q8NEB9 = biological target: UniProt Q8NEB9
Outline: as §1

MAPKAPK3 = MAPKAPK3 (UniProt Q16644)
Outline: as §1

UniProt Q02779 = settings: cell material: Lysate mix
Outline: as §1

CLK2 = CLK2 (UniProt P49760)
Outline: as §1

UniProt Q9Y6M4 = settings: cell material: Lysate mix
Outline: as §1

Chain of AKT2 (P31751 whole entry): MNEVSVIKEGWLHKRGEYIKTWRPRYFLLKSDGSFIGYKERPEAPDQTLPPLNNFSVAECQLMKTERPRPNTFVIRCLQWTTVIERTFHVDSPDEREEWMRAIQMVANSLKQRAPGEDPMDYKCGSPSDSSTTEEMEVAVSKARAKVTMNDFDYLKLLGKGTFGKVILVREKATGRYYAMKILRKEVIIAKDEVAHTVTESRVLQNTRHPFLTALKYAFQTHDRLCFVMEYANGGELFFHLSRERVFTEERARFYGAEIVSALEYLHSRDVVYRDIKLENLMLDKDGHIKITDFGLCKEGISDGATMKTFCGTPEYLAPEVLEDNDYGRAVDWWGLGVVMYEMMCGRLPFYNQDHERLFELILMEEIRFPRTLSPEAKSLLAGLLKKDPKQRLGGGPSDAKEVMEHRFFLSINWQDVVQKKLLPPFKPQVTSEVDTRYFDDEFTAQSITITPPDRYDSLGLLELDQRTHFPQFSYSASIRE
Chain of CDK10 (Q15131 whole entry): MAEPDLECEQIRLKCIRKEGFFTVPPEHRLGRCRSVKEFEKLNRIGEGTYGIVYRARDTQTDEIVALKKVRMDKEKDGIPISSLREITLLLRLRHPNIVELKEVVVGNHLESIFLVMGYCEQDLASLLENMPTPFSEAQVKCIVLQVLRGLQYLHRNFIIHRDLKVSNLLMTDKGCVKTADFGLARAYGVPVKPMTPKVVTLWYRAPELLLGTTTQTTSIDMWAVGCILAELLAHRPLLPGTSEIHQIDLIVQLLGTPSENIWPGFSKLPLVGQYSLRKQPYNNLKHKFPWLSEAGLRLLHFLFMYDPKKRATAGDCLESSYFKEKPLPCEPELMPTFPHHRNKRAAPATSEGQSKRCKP
Chain of UniProt Q02779 (Q02779 whole entry, looked up): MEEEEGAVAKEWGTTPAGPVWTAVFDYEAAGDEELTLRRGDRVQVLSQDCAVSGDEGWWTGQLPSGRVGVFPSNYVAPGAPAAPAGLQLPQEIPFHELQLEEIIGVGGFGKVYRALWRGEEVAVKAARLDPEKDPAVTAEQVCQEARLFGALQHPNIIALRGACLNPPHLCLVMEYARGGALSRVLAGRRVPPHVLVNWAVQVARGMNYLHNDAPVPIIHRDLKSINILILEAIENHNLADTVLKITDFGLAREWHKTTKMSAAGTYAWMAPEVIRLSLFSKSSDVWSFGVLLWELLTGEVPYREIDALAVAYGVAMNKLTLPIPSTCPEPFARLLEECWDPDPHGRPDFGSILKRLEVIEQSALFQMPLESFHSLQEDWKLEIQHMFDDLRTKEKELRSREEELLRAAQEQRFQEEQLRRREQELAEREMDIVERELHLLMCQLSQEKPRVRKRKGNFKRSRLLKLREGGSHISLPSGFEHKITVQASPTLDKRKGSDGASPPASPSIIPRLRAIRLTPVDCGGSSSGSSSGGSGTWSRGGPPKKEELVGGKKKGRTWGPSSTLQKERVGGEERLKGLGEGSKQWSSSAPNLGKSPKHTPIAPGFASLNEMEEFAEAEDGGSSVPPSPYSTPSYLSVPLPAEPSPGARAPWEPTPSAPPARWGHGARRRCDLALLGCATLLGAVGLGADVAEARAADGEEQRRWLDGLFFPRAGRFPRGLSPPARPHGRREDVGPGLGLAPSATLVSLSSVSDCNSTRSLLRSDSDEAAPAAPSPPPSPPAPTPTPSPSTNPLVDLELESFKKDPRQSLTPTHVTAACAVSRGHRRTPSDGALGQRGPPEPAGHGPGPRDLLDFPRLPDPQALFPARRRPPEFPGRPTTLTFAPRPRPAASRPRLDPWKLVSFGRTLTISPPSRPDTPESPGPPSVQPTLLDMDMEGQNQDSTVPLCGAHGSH
Chain of UniProt Q9P289 (Q9P289 whole entry, looked up): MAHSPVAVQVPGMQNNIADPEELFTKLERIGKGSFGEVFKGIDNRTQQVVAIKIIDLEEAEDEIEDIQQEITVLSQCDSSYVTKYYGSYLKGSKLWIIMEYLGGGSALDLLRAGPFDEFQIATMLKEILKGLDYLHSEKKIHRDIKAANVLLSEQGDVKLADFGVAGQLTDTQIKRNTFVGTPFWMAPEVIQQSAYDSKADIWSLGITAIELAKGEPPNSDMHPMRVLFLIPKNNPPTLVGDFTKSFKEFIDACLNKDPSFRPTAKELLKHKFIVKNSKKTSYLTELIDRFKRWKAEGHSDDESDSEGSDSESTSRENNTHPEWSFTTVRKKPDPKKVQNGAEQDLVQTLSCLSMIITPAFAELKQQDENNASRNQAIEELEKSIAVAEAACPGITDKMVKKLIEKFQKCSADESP
Chain of CLK2 (P49760 whole entry, looked up): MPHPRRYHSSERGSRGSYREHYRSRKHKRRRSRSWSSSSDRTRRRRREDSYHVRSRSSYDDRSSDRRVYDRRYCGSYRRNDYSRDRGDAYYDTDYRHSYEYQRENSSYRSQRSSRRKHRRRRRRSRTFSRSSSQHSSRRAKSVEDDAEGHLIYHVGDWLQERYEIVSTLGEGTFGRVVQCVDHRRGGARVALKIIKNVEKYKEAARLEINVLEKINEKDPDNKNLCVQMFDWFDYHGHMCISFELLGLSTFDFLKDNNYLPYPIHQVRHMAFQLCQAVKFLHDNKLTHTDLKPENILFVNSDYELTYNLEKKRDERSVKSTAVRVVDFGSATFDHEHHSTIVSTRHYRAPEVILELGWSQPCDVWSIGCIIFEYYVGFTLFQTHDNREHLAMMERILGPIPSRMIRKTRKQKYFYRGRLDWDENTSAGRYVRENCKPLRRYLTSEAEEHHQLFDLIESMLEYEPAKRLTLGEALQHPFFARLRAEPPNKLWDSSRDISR
Chain of UniProt P16234 (P16234 whole entry): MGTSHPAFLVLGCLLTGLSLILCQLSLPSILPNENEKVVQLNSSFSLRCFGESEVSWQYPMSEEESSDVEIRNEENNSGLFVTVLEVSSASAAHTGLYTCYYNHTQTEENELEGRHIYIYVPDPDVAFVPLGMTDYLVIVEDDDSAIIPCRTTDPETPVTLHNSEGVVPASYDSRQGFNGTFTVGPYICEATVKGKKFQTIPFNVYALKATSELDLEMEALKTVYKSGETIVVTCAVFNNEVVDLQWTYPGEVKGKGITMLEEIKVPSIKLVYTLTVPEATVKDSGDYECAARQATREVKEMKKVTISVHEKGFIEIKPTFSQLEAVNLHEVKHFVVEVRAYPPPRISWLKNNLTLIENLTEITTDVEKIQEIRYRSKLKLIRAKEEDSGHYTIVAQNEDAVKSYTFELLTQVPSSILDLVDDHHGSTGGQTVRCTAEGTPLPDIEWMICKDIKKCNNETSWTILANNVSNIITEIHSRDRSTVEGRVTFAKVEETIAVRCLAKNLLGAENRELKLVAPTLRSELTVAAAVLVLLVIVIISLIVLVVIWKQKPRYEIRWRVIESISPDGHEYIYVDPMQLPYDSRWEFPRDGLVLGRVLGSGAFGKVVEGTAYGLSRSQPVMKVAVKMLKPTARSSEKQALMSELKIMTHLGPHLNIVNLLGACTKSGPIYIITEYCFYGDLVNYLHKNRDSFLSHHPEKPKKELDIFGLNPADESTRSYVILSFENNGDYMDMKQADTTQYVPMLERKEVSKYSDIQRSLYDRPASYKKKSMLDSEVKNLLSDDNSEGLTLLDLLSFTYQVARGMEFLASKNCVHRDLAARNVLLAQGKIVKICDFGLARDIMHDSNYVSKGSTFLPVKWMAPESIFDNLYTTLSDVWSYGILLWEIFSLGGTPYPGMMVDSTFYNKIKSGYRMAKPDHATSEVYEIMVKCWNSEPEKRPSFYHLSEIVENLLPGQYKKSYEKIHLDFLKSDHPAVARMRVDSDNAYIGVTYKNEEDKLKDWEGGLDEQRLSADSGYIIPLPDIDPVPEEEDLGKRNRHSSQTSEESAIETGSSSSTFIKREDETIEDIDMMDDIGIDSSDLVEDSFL
Chain of UniProt Q9Y6M4 (Q9Y6M4 whole entry, looked up): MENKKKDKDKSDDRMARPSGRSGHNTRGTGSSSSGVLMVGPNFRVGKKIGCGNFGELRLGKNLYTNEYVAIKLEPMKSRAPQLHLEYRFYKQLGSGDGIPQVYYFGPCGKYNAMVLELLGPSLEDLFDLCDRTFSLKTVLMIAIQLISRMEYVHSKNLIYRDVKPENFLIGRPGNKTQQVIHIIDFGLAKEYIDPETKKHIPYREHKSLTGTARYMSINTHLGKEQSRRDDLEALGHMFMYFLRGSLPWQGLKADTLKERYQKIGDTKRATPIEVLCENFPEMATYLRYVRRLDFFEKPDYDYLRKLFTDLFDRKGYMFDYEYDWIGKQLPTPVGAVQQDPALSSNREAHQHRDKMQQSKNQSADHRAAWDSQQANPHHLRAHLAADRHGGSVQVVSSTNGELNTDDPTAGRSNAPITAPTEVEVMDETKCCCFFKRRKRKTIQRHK
Chain of MAPKAPK3 (Q16644 whole entry, looked up): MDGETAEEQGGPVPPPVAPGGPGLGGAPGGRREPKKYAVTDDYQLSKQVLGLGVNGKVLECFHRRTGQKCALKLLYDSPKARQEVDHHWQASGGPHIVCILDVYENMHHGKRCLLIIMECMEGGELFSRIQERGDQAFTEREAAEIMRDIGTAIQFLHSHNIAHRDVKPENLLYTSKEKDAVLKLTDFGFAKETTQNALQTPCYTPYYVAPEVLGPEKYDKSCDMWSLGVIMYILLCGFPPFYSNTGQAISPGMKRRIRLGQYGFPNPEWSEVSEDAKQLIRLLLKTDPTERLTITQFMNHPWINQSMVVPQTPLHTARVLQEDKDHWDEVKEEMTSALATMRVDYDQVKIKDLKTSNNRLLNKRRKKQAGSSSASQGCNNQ

pIC50 (UniProt P16234) | pIC50 (UniProt Q99683; cell material: Lysate mix) | pIC50 (CDK10; cell material: Lysate mix) | pIC50 (UniProt Q9P289; cell material: Jurkat lysate) | pIC50 (UniProt Q9P289; cell material: Lysate mix) | pIC50 (UniProt Q14164; cell material: Lysate mix) | pIC50 (MAPKAPK3; cell material: Lysate mix) | pIC50 (UniProt Q02779) | pIC50 (CLK2; cell material: Lysate mix) | pIC50 (UniProt Q9Y6M4) | pIC50 (AKT2; cell material: Lysate mix) | pIC50 (UniProt Q8NEB9; cell material: Lysate mix) | SMILES | pIC50 (AKT2; cell material: Jurkat cells) | pIC50 (UniProt Q99683; cell material: Jurkat cells) | pIC50 (UniProt Q99683; cell material: Jurkat lysate) | pIC50 (CDK10; cell material: Jurkat cells) | pIC50 (UniProt Q14164; cell material: Jurkat cells) | pIC50 (UniProt Q14164; cell material: Jurkat lysate) | pIC50 (UniProt Q8NEB9; cell material: Jurkat cells) | pIC50 (MAPKAPK3; cell material: Jurkat cells) | pIC50 (MAPKAPK3; cell material: Jurkat lysate) | pIC50 (CLK2; cell material: Jurkat cells) | pIC50 (CLK2; cell material: Jurkat lysate) | pIC50 (CDK10; cell material: Jurkat lysate) | pIC50 (UniProt Q9P289; cell material: Jurkat cells)
< 4.52 | < 4.52 | < 4.52 | < 4.52 | < 4.52 | < 4.52 | < 4.52 | < 4.52 | < 4.52 | < 4.52 |  |  | O=C(NCCNC(=O)c1cc(Nc2cc(C3CC3)[nH]n2)nc(N2CCN(Cc3ccc(S(=O)(=O)F)cc3)CC2)n1)OC1CC/C=C/CCC1 (stereo unspecified) | < 4.52 | 4.75 | < 4.52 | 6.06 | 5.28 | < 4.52 | < 4.52 | 6.36 | 6.28 | 5.92 | < 4.52 |  | 
 | < 4.52 | < 4.52 |  | < 4.52 | < 4.52 |  | < 4.52 |  |  |  |  | Cc1cc(Nc2cc(C(=O)NCCNC(=O)OC3CC/C=C/CCC3)nc(N3CCN(Cc4ccc(S(=O)(=O)F)cc4)CC3)n2)n[nH]1 (stereo unspecified) |  |  |  |  |  |  |  |  |  |  |  |  | 

Continued, compound first:

SMILES | pIC50 (UniProt P16234) | pIC50 (UniProt Q99683; cell material: Lysate mix) | pIC50 (CDK10; cell material: Lysate mix) | pIC50 (UniProt Q9P289; cell material: Jurkat lysate) | pIC50 (UniProt Q9P289; cell material: Lysate mix) | pIC50 (UniProt Q14164; cell material: Lysate mix) | pIC50 (MAPKAPK3; cell material: Lysate mix) | pIC50 (UniProt Q02779) | pIC50 (CLK2; cell material: Lysate mix) | pIC50 (UniProt Q9Y6M4) | pIC50 (AKT2; cell material: Lysate mix) | pIC50 (UniProt Q8NEB9; cell material: Lysate mix) | pIC50 (AKT2; cell material: Jurkat cells) | pIC50 (UniProt Q99683; cell material: Jurkat cells) | pIC50 (UniProt Q99683; cell material: Jurkat lysate) | pIC50 (CDK10; cell material: Jurkat cells) | pIC50 (UniProt Q14164; cell material: Jurkat cells) | pIC50 (UniProt Q14164; cell material: Jurkat lysate) | pIC50 (UniProt Q8NEB9; cell material: Jurkat cells) | pIC50 (MAPKAPK3; cell material: Jurkat cells) | pIC50 (MAPKAPK3; cell material: Jurkat lysate) | pIC50 (CLK2; cell material: Jurkat cells) | pIC50 (CLK2; cell material: Jurkat lysate) | pIC50 (CDK10; cell material: Jurkat lysate) | pIC50 (UniProt Q9P289; cell material: Jurkat cells)
CCNC(=O)c1cc(Nc2cc(C3CC3)[nH]n2)nc(N2CCN(Cc3ccc(S(=O)(=O)F)cc3)CC2)n1 | < 4.52 | < 4.52 | 5.29 |  |  | 5.08 |  | 5.14 | 5.55 | 4.89 | < 4.52 | < 4.52 |  |  |  |  |  |  |  |  |  |  |  |  | 
CCNC(=O)c1cc(Nc2cc(C)[nH]n2)nc(N2CCN(Cc3ccc(S(=O)(=O)F)cc3)CC2)n1 |  | 4.69 |  |  |  |  | 5.74 | < 4.52 |  | < 4.52 |  |  |  |  |  |  |  |  |  |  |  |  |  |  | 
C#CCNC(=O)c1cc(Nc2cc(C3CC3)[nH]n2)nc(N2CCN(Cc3ccc(S(=O)(=O)F)cc3)CC2)n1 | < 4.52 | < 4.52 | 5.82 |  | < 4.52 | 5.25 |  |  |  | < 4.52 |  |  | 5.74 | 5.39 | < 4.52 | 6.16 | 6 | 4.89 | 4.87 | 6.53 | 6.64 | 6.11 | 5.57 | 6.04 | 6.36
C#CCNC(=O)c1cc(Nc2cc(C)[nH]n2)nc(N2CCN(Cc3ccc(S(=O)(=O)F)cc3)CC2)n1 | < 4.52 |  |  |  |  | < 4.52 |  | < 4.52 |  |  |  |  |  |  |  |  |  |  |  |  |  |  |  |  | 
